Laboratory results as given in US20150359798A1, “PIPERAZINYL DERIVATIVE REDUCES HIGH-FAT DIET-INDUCED ACCUMULATION OF FAT IN THE LIVERS, […]” (priority 2011, published 2015).
Structures can show the parent of a compound that is named as a salt.

Legend:
ROCK II = ROCK II expression in HepG2 cells; format: cell-based; conditions: HepG2; for RhoA/ROCK II expression: exogenous GGPP or FPP alone
Method: (§1) HepG2 cells were treated with various concentrations of drugs for 24 hours. Reactions were terminated by washing twice with cold PBS, and the cells were then harvested, Proteins in the whole-cell lysate were homogenized in an ice-cold lysis buffer and a protease inhibitor (Sigma-Aldrich, St. Louis, Mo., U.S.A.). The homogenate was centrifuged at 90, 000 g for 15 minutes at 4° C., and supernatant was recovered as the total cellular protein. Cytosolic and membrane fractions of HepG2 cells were prepared using a. CNM (Cytosol Nuclear Membrane) compartment protein extraction kit (BioChain Institute Inc., Hayward, Calif., U.S.A.) according to the manufacturer's instructions. All of the fractionated protein solutions were stored at -80° C. until analysis. To measure the expression levels of proteins by drugs, the total cell protein was extracted after incubation with treatments for 24 hours and then Western blotting analysis was performed as described previously.

PPARγ = PPARγ expression in HepG2 cells; format: cell-based; conditions: HepG2; for expression of PPARγ: FPP or GGPP (10 μM) alone
Method: as §1, with “−80°” for “-80°”

ABCA1 = ABCA1 expression in HepG2 cells; format: cell-based; conditions: HepG2; for expression of ABCA1: FPP or GGPP (10 μM) alone
Method: as §1, with “−80°” for “-80°”

PDE-5A = assay: Table 4 PDE-5A (% of control); format: cell-based; conditions: control group = 100 (%)
ROCKII = assay: Table 4 ROCKII (% of control); format: cell-based; conditions: control group = 100 (%)
Rho-kinase = assay: Table 3 Rho-kinase (% of control); format: cell-based; conditions: 10 μM; control group = 100 (%)
eNOS [1] = assay: Table 4 eNOS (% of control); format: cell-based; conditions: control group = 100 (%)
PPAR-γ = assay: Table 3 PPAR-γ (% of control); format: cell-based; conditions: 10 μM; control group = 100 (%)
eNOS [2] = assay: Table 3 eNOS (% of control); format: cell-based; conditions: 10 μM; control group = 100 (%)
p-HSL = assay: Table 3 p-HSL (% of control); format: cell-based; conditions: 10 μM; control group = 100 (%)
HMG CoA reductase = HMG CoA reductase expression in HepG2 cells (Western blotting); format: cell-based; conditions: HepG2, mevalonate 60, 80, 100 μM
Method: The HepG2 hepatoma cell line was purchased from the American Type Culture Collection (ATCC; Manassas, Va., U.S.A.). Cells were cultured in DMEM. The culture media was supplemented with 5% heat-Inactivated FBS, penicillin (100 U/mL) and streptomycin (100 μg/mL). Cells were grown in a humidified atmosphere containing 5% CO2 at 37° C., in which the oxygen tension in the incubator was held at 140 mmHg (20% O2, v/v; normoxic conditions).
as §1, with “−80°” for “-80°”

mice fed with HFD = assay: HFD-fed mice, 8 weeks, gavage: serum/liver lipids, body weight, food intake; format: in vivo; conditions: HFD mice, 8 weeks, 5 mg/kg
Method: In the 8 week experiment, C57BL/6J male mice (21-22 g), after fasting, were fed a HFD as a model of hyperlipidemia for 8 weeks. During the 2 month experiments, mice fasted for one night before the experiment was changed from a standard diet (STD) to a HFD and then the mice were randomly divided into 5 groups, including 2 control and 3 treatment groups. Six mice were used in each group. […] Liver from the protection group supplemented with KMUP-1 HCl (1 mg/kg/day) were used to determine the HMG CoA reductase expression.
Within 2 months, the 3 day food intake average for each animal was measured. The weight gain and plasma lipid levels of each group were determined and compared to the non-treatment control group. Mouse blood was collected during the daytime by cardiac puncture followed by centrifugation at 90 g (Benchtop Centrifuge, U.S.A.) to separate the serum, and frozen at −80° C., for biochemical analysis using a Hitachi Clinical Analyzer 7070 (Hitachi High-Technologies Co. Tokyo, Japan). Agents used in the assays were Obtained from Merck & Co. (Kenilworth, N.J., U.S.A.). Triglyceride (TG), total cholesterol, HDL cholesterol and LDL cholesterol in mouse serum were measured by methods used in the clinic. To measure the hepatic TG, isolated liver were cut into small chips.

[3] = simvastatin, KMUP-1, Y27632 10^−5M, C3 exoenzyme

Q: With CC(C)=CCC/C(C)=C/CC/C(C)=C/COP(=O)(O)OP(=O)(O)O [FPP, farnesyl pyrophosphate, reference compound] as the compound, how does the “RhoA/ROCK II expression” value (ROCK II) read?
A: Its value is “increased”.

Q: And the “expression of PPARγ” value (PPARγ)?
A: The value was “suppressed”.

Q: What about the “expression of ABCA1” value (ABCA1) of the same compound?
A: Its value is “suppressed”.

Q: How did the “RhoA/ROCK II expression” value (ROCK II) turn out when CC(C)=CCC/C(C)=C/CC/C(C)=C/CC/C(C)=C/COP(=O)(O)OP(=O)(O)O [GGPP, geranylgeranyl pyrophosphate, reference compound] was run?
A: Its value is “increased”.

Q: What about the “expression of PPARγ” value (PPARγ) of the same compound?
A: The value was “suppressed”.

Q: And the “expression of ABCA1” value (ABCA1)?
A: The value was “suppressed”.

Q: Which PDE-5A (PDE-5A) does the source give for COc1ccccc1N1CCN(CCn2cnc3c2c(=O)n(C)c(=O)n3C)CC1 [KMUP-2 HCl] here?
A: Its PDE-5A is 68.8 ± 5.3%.

Q: What about the ROCKII (ROCKII) of the same compound?
A: Its ROCKII is 40.8 ± 3.7%.

Q: For COc1ccccc1N1CCN(CCn2cnc3c2c(=O)n(C)c(=O)n3C)CC1 [KMUP-2, 7-[2-[4-(2-methoxybenzene)piperazinyl]ethyl]-1,3-dimethylxanthine], which Rho-kinase (Rho-kinase) is on record?
A: The Rho-kinase was 81.9 ± 8.2%.

Q: How did the eNOS (eNOS [1]) turn out when Cl.Cn1c(=O)c2c(ncn2CCN2CCN(c3ccc([N+](=O)[O-])cc3)CC2)n(C)c1=O [KMUP-3 HCl, 7-[2-[4-(4-nitrobenzene)piperazinyl]ethyl]-1,3-dimethyl xanthine HCl complex] was run?
A: Its eNOS is 148.31 ± 7.5%.

Q: What about the PDE-5A (PDE-5A) of the same compound?
A: Its PDE-5A is 63.6 ± 5.2%.

Q: And the ROCKII (ROCKII)?
A: The ROCKII was 44.5 ± 2.9%.

Q: What does the source list for Cn1c(=O)c2c(ncn2CCN2CCN(c3ccccc3[N+](=O)[O-])CC2)n(C)c1=O [KMUP-3, 7-[2-[4-(2-nitrobenzene)piperazinyl]ethyl]-1,3-dimethylxanthine]?
A: PPAR-γ (PPAR-γ): 140.8 ± 15.7%; eNOS (eNOS [2]): 131.5 ± 13.7%; Rho-kinase (Rho-kinase): 79.4 ± 6.9%; p-HSL (p-HSL): 138.2 ± 14.4%

Q: How did the eNOS (eNOS [1]) turn out when Cn1c(=O)c2c(ncn2CCN2CCN(c3ccccc3[N+](=O)[O-])CC2)n(C)c1=O [KMUP-4 HCl] was run?
A: The eNOS was 135.24 ± 7.5%.

Q: What about the PDE-5A (PDE-5A) of the same compound?
A: The PDE-5A was 73.4 ± 3.4%.

Q: And the ROCKII (ROCKII)?
A: Its ROCKII is 37.6 ± 2.8%.

Q: How did the PPAR-γ (PPAR-γ) turn out when Cn1c(=O)c2c(ncn2CCN2CCN(c3ccccc3[N+](=O)[O-])CC2)n(C)c1=O [KMUP-4, 7-[2-[4-(2-nitrobenzene)piperazinyl]ethyl]-1,3-dimethylxanthine] was run?
A: Its PPAR-γ is 143.7 ± 11.3%.

Q: What about the eNOS (eNOS [2]) of the same compound?
A: The eNOS was 125.6 ± 13.6%.

Q: What about the Rho-kinase (Rho-kinase) of the same compound?
A: Its Rho-kinase is 83.7 ± 7.5%.

Q: And the p-HSL (p-HSL)?
A: The p-HSL was 136.5 ± 12.6%.

Q: Nc1nc2c(nc(Sc3ccc(Cl)cc3)n2[C@@H]2O[C@@H]3CO[P@@](=O)(S)O[C@H]3[C@H]2O)c(=O)[nH]1 [Rp-8-pCPT-cGMPS, 8-(p-chloro-phenylthio)guanosine-3,5-monophosphorothioate] was tested. Which “ROCK II expression” value (ROCK II; 10 μM cGMP antagonist) did it give?
A: The value was “increased”.

Q: Which “ROCK II expression” value (ROCK II; C3 exoenzyme 5 μg/ml, Y27632 10 μM) does the source give for C[C@@H](N)[C@H]1CC[C@H](C(=O)Nc2ccncc2)CC1 [Y27632, reference compound] here?
A: Its value is “reduced”.

Q: What about the “PPARγ expression (FIG. 24C)” value (PPARγ; [3]) of the same compound?
A: Its value is “increased”.

Q: What about the “ABCA1 expression (FIG. 24D)” value (ABCA1; [3]) of the same compound?
A: The value was “increased”.

Q: For CC(O)(CCO)CC(=O)O (stereo not shown) [mevalonate, reference compound], which “HMG CoA reductase expression” value (HMG CoA reductase) is on record?
A: The value was “concentration-dependently reduced”.

Q: For CCC(C)(C)C(=O)O[C@H]1C[C@@H](C)C=C2C=C[C@H](C)[C@H](CC[C@@H]3C[C@@H](O)CC(=O)O3)[C@H]21 [simvastatin, reference compound], which HDL cholesterol (mice fed with HFD) is on record?
A: Its HDL cholesterol is 103.2 ± 2.5 mg/dL.

Q: And the LDL cholesterol (mice fed with HFD)?
A: Its LDL cholesterol is 15.3 ± 1.3 mg/dL.

Q: What about the TG in serum (mice fed with HFD) of the same compound?
A: Its TG in serum is 82.7 ± 6.3 mg/dL.

Q: What about the TG of liver (mice fed with HFD) of the same compound?
A: Its TG of liver is 34.5 ± 2.** mg/dl.

Q: And the “Tot. chol. (total cholesterol)” value (mice fed with HFD)?
A: The value was 133.7 ± 4.3 mg/dL.

Q: What about the “final BW (Body weight)” value (mice fed with HFD) of the same compound?
A: Its value is 23.9 ± 0.9 g.
